These results are taken from PubChem BioAssay (NCI).

SMILES strings stand for the structures.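 All cell lines were grown in 96-well plates and treated with compound for 48 hours. The concentration for 50% growth inhibition is given as GI50. The concentration for full growth arrest is given as TGI.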

Some test systems named below: SNB-78 CNS; DLD-1 colon; HOP-18 NSCLC; KM20L2 colon; DMS 114 small cell lung; DMS 273 small cell lung; RXF-631 renal; M19-MEL melanoma; XF 498 CNS; SN12K1 renal; P388 leukemia; P388/ADR leukemia.
Test in all cases: NCI tumour cell line growth inhibition, 48 h

With `Cc1cccc2ns[s+]c12`, the TGI in the assay on SNB-78 CNS was more than 100 µM; in the assay with DLD-1 colon, more than 100 µM; with HOP-18 NSCLC, more than 100 µM; with KM20L2 colon it was more than 100 µM; in the assay with DMS 114 small cell lung, 58.1 µM; in the assay on DMS 273 small cell lung, more than 100 µM.

Consider `CN1C(=N\S(=O)(=O)c2ccc(Cl)cc2)/C(=N/N=P(c2ccccc2)(c2ccccc2)c2ccccc2)c2ccccc21`, for which the TGI in the assay with SNB-78 CNS, in the assay on RXF-631 renal, in the assay with DLD-1 colon, in the assay on M19-MEL melanoma, with XF 498 CNS and with KM20L2 colon was more than 100 µM each time. In addition, in the assay on DMS 273 small cell lung, the TGI is more than 100 µM.

For the compound `O=C(Cl)c1cc([N+](=O)[O-])cc([N+](=O)[O-])c1`, the TGI with SNB-78 CNS, with DLD-1 colon, in the assay on M19-MEL melanoma, in the assay on XF 498 CNS, with DMS 114 small cell lung and in the assay on DMS 273 small cell lung was more than 100 µM in each case.

Consider `Cc1ccc(CCNC(=S)SCC(NC(=O)CCC(N)C(=O)O)C(=O)NCC(=O)O)cc1` (stereo not drawn), for which the TGI in the assay on RXF-631 renal is 5.62 µM; with DLD-1 colon, 2.63 µM; in the assay on M19-MEL melanoma, 4.07 µM; in the assay with HOP-18 NSCLC, 7.76 µM; in the assay on XF 498 CNS it was 3.15 µM; in the assay with KM20L2 colon, 5.1 µM. The TGI was found to be 2.72 µM in the assay with DMS 114 small cell lung and 1.68 µM in the assay with DMS 273 small cell lung.

`COc1nc(NC2OCC(OC(C)=O)C(OC(C)=O)C2OC(C)=O)c(N=C(C)C(C)=O)c(=O)n1C` (stereo not drawn): the TGI with SNB-78 CNS, in the assay on RXF-631 renal, with DLD-1 colon, in the assay on HOP-18 NSCLC, in the assay on XF 498 CNS and in the assay on KM20L2 colon was more than 100 µM in each case. For the same compound, the TGI in the assay on DMS 114 small cell lung and in the assay on DMS 273 small cell lung was more than 100 µM throughout.

For `O=c1[nH]c2cccccc-2c1-c1nc2ccccc2[nH]1`, the TGI in the assay on SNB-78 CNS is more than 100 µM; in the assay with DLD-1 colon, more than 100 µM; in the assay with M19-MEL melanoma, more than 100 µM; in the assay on XF 498 CNS, 42.3 µM; with KM20L2 colon, more than 100 µM; with DMS 114 small cell lung, more than 100 µM. This compound also registered a TGI in the assay with DMS 273 small cell lung of 70.6 µM.

Take `COc1ccccc1C1C(Cl)C(=O)N1NC(=O)Cc1ccccc1` (stereo not drawn): the TGI in the assay on SNB-78 CNS, with M19-MEL melanoma, in the assay with HOP-18 NSCLC, in the assay on XF 498 CNS, in the assay with KM20L2 colon and in the assay on DMS 114 small cell lung was more than 100 µM each time. The same compound came in with a TGI with DMS 273 small cell lung of more than 100 µM.

Turning to `CCC1OC(=O)C(C)C(OC2CC(C)(O)C(O)C(C)O2)C(C)C(O)C(C)(O)CC(C)C(=O)C(C)C(O)C1C` (stereo not drawn), the TGI in the assay with SNB-78 CNS was more than 189 µM; in the assay on SN12K1 renal, more than 300 µM; with DLD-1 colon, more than 300 µM; in the assay with P388 leukemia, more than 300 µM; with M19-MEL melanoma, more than 300 µM; with HOP-18 NSCLC it was more than 300 µM. Besides, the TGI in the assay with P388/ADR leukemia, with XF 498 CNS, with KM20L2 colon, in the assay on DMS 114 small cell lung and in the assay on DMS 273 small cell lung was more than 300 µM in each case.

Regarding `C[N+](C)(C)CC(=O)N/N=C(\C(=O)Nc1ccc(Cl)cc1)C1C(=O)N(c2ccccc2)N=C1N` (stereo not drawn), the TGI in the assay on SNB-78 CNS, in the assay on DLD-1 colon, in the assay on M19-MEL melanoma, in the assay on KM20L2 colon, in the assay on DMS 114 small cell lung and in the assay on DMS 273 small cell lung was more than 100 µM in each case.

For `CC(=O)NC(Cc1ccccc1)C(=S)N1CCCC1` (stereo not drawn), the TGI in the assay with SNB-78 CNS, in the assay on RXF-631 renal, in the assay with DLD-1 colon, in the assay with M19-MEL melanoma, in the assay with HOP-18 NSCLC and with XF 498 CNS was more than 100 µM each time. Moreover, the TGI with KM20L2 colon, with DMS 114 small cell lung and in the assay on DMS 273 small cell lung was more than 100 µM throughout.

Consider `Nc1nc(NC(=O)C2=NS(=O)(=O)c3cc(S(N)(=O)=O)c(Cl)cc3N2)n[nH]1`, for which the TGI with SNB-78 CNS, in the assay on DLD-1 colon, in the assay with M19-MEL melanoma, in the assay on HOP-18 NSCLC, with XF 498 CNS and with KM20L2 colon was more than 100 µM each time. The same compound returned a TGI in the assay with DMS 114 small cell lung of more than 100 µM.

In the case of `COc1cc(/C=C/C(=O)C(C)(C)C)cc(OC)c1OC`, the TGI is more than 100 µM in the assay with DLD-1 colon; more than 100 µM in the assay on M19-MEL melanoma; more than 100 µM in the assay with HOP-18 NSCLC; more than 100 µM in the assay with XF 498 CNS; more than 100 µM in the assay with KM20L2 colon; 71.5 µM with DMS 114 small cell lung. The TGI in the assay on DMS 273 small cell lung was more than 100 µM.

Turning to `CC(C)CCC[C@@H](C)[C@H]1CC[C@H]2[C@@H]3CC=C4CC(OCCCCN(O)CCCSC5OC(CO)C(O)C(O)C5O)CC[C@]4(C)[C@H]3CC[C@]12C` (stereo partly drawn), the TGI was more than 100 µM in the assay on SNB-78 CNS; more than 100 µM in the assay on DLD-1 colon; more than 100 µM in the assay on M19-MEL melanoma; more than 100 µM in the assay with XF 498 CNS; more than 100 µM in the assay on KM20L2 colon; 45.6 µM in the assay with DMS 114 small cell lung. Also, the TGI in the assay on DMS 273 small cell lung is more than 100 µM.

With `O=C(CCc1nnc2s/c(=C\c3ccc(Cl)cc3Cl)c(=O)n12)Nc1cc(Cl)c(Cl)cc1Cl`, the TGI in the assay on SNB-78 CNS, in the assay on RXF-631 renal, in the assay with DLD-1 colon, in the assay with M19-MEL melanoma, in the assay on HOP-18 NSCLC and in the assay on KM20L2 colon was more than 100 µM throughout. Also, the TGI with DMS 114 small cell lung and in the assay with DMS 273 small cell lung was more than 100 µM in each case. The GI50 in the assay on DLD-1 colon, with M19-MEL melanoma, with HOP-18 NSCLC, with KM20L2 colon, with DMS 114 small cell lung and in the assay with DMS 273 small cell lung was more than 100 µM each time.

With `COc1cc2c(oc(=O)c3c4oc([Si](C)(C)C)cc4cc(OC)c23)c2cccc(O)c12`, the TGI with DLD-1 colon, in the assay on M19-MEL melanoma, with HOP-18 NSCLC, with XF 498 CNS, in the assay on KM20L2 colon and in the assay with DMS 114 small cell lung was more than 100 µM in each case. In the assay on DMS 273 small cell lung, the TGI is more than 100 µM.

Consider `O=C(N/N=C/c1cc(-c2ccccc2Cl)c(-c2ccccc2Cl)o1)c1ccncc1`, for which the TGI in the assay with RXF-631 renal, in the assay on DLD-1 colon, in the assay on M19-MEL melanoma, with XF 498 CNS, in the assay on KM20L2 colon and in the assay with DMS 114 small cell lung was more than 100 µM in each case.
